Assay results from patent US20240190855A1 (Relay Therapeutics, Inc., priority 2021, published 2024).

Target: T1, CDK2/Cyclin E complex (Homo sapiens, UniProt P24941)
T1 construct: purchased Eurofins 14-475
Assay: CDK2/Cyclin E fluorescence-based microfluidic mobility shift assay (CDK2 Biochemical Caliper Assay)
Conditions: read-out: Biochemical CDK2/CyclinE Caliper IC50
In short: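 Wild-type CDK2/Cyclin E was preincubated with compound and ATP for 30 min at RT before the 5-FAM-QSPKKG peptide was added. Final concentrations were 0.1 nM enzyme, 2000 uM ATP, 1.5 uM peptide and 1% DMSO. After 20 hr at RT and EDTA stop, substrate conversion was read by microfluidic mobility shift over an 11-point, 3-fold dilution series.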

Row | Structure (SMILES) | IC50 [nM]
1 | CO[C@@H](C)c1cc2c(Nc3cc([C@H]4C[C@@H](OC(=O)NC5(C)CC5)CO4)[nH]n3)nccn2n1 (single isomer, unassigned) [Example 891] | ≤ 100
2 | COCc1cc2c(Nc3cc([C@H]4C[C@@H](OC(=O)N[C@H]5CC5(C)C)CO4)[nH]n3)nccn2n1 [Example 677] | ≤ 100
3 | Cn1nc(CC(F)(F)F)cc1C(=O)Nc1cc([C@H]2C[C@@H](OC(=O)NC3(C)CC3)CO2)[nH]n1 [Example 785] | ≤ 100
4 | COCc1cc2c(Nc3cc([C@H]4C[C@@H](OC(=O)N[C@@H](C)C5CC5)CO4)[nH]n3)nccn2n1 [Example 656] | ≤ 100
5 | Cc1cc(CC(=O)Nc2cc([C@H]3C[C@@H](OC(=O)NC4(C)CC4)CO3)[nH]n2)on1 (single isomer, unassigned) [Example 101] | ≤ 100
6 | CC(C)c1ccnnc1O[C@H]1CO[C@@H](c2cc(Nc3nccc4ncsc34)n[nH]2)C1 [Example 523] | ≤ 100
7 | COCc1cc(C(=O)Nc2cc([C@H]3C[C@@H](COc4nnccc4C(C)C)C3)[nH]n2)n(C)n1 [Example 429] | ≤ 100
8 | Cc1cc(CC(=O)Nc2cc([C@H]3CC[C@@H](n4cc(C)[nH]c4=O)C3)[nH]n2)on1 (single isomer, unassigned) [Example 92] | 250 to 1000
9 | c1cc2c(nc1Nc1cc(C3CCCC3)[nH]n1)CCOC2 [Example 867] | 1000 to 100000
10 | CC1(NC(=O)O[C@H]2CO[C@@H](c3cc(Nc4cc5nccnc5cn4)n[nH]3)C2)CC1 [Example 760] | 250 to 1000
11 | CC(C)c1cc(Nc2cc(C3CCCC3)[nH]n2)n2ncnc2n1 [Example 817] | 1000 to 100000
12 | Cc1nc(Nc2cc(C3CCCC3)[nH]n2)c2sccc2n1 [Example 839] | 1000 to 100000
13 | Cn1nc(COC(F)(F)F)cc1C(=O)Nc1cc([C@H]2C[C@@H](OC(=O)NC34CC(C3)C4)CO2)[nH]n1 [Example 750] | ≤ 100
14 | COCc1cc(C(=O)Nc2cc([C@H]3CC[C@](C)(CC(=O)NC(C)C)C3)[nH]n2)n(C)n1 (single isomer, unassigned) [Example 448] | 1000 to 100000
15 | Cc1cc(CC(=O)Nc2ncc(C3CCCC3)o2)on1 [Example 38] | 1000 to 100000
16 | Cn1nc(OCC(F)(F)F)cc1C(=O)Nc1cc([C@H]2C[C@@H](OC(=O)NC34CC(C3)C4)CO2)[nH]n1 [Example 881] | ≤ 100
17 | Cc1cc(CC(=O)Nc2cc([C@H]3C[C@@H](COc4nnccc4C(C)C)C3)[nH]n2)on1 [Example 431] | ≤ 100
18 | COCc1cc2c(Nc3cc([C@H]4C[C@@H](OC(=O)C5CCC5(C)C)CO4)[nH]n3)nccn2n1 (stereo partly drawn) [Example 726] | ≤ 100
19 | COCc1cc(C(=O)Nc2cc([C@H]3CC[C@H](c4nccc(C(C)C)n4)C3)[nH]n2)n(C)n1 (single isomer, unassigned) [Example 611] | 1000 to 100000
20 | Cc1csc2nc(Nc3cc(C4CCCC4)[nH]n3)ncc12 [Example 805] | 1000 to 100000
21 | OCCOc1cncc(Nc2cc(C3CCCC3)[nH]n2)n1 [Example 842] | 100 to 250

Row | Structure (SMILES) | IC50 [nM]
22 | Cc1cc(CC(=O)Nc2nc(C3CCCC3)c[nH]2)on1 [Example 43] | 1000 to 100000
23 | CC(C)n1cnnc1OC[C@H]1C[C@@H](c2cc(Nc3nccn4nccc34)n[nH]2)C1 [Example 635] | ≤ 100
24 | COCc1cc2c(Nc3cc([C@H]4C[C@@H](OC(=O)NC56CC(Cl)(C5)C6)CO4)[nH]n3)nccn2n1 [Example 712] | ≤ 100
25 | Clc1cccc2nc(Nc3cc(C4CCCC4)[nH]n3)cnc12 [Example 801] | 1000 to 100000
26 | COCc1cc(C(=O)Nc2cc([C@H]3CC[C@@H](c4nccc(C(C)C)n4)C3)[nH]n2)n(C)n1 (single isomer, unassigned) [Example 609] | ≤ 100
27 | CC1(NC(=O)O[C@H]2CO[C@@H](c3cc(Nc4ccn5c(Cl)nnc5n4)n[nH]3)C2)CC1 [Example 755] | 250 to 1000
28 | Cc1cnc(Nc2cc(C3CCCC3)[nH]n2)c(C)n1 [Example 862] | 1000 to 100000
29 | Cc1cc(CC(=O)Nc2cc([C@H]3C[C@@H]4CC[C@H]3C4)[nH]n2)on1 (racemic) [Example 49] | 1000 to 100000
30 | Cc1cc(CC(=O)Nc2cc([C@H]3CC[C@@H](OC(=O)[C@@H](N)C(C)C)C3)[nH]n2)on1 (single isomer, unassigned) [Example 468] | 100 to 250
31 | COCc1cc(C(=O)Nc2cc([C@@H]3CC[C@](C)(CC(=O)NC(C)C)C3)[nH]n2)n(C)n1 (single isomer, unassigned) [Example 420] | 1000 to 100000
32 | Cc1cc(CC(=O)Nc2ncn(C3CCCC3)n2)on1 [Example 61] | 1000 to 100000
33 | CCc1c(C)nc2ncnn2c1Nc1cc(C2CCCC2)[nH]n1 [Example 875] | 1000 to 100000
34 | COCc1cc(C(=O)Nc2cc([C@H]3C[C@@H](OC(=O)NC4(C)CC4)CO3)[nH]n2)n(C(F)(F)F)n1 [Example 895] | ≤ 100
35 | Cc1cc(CC(=O)Nc2cc([C@@H]3CC[C@H](NC(=O)OC(C)C)C3)[nH]n2)on1 (single isomer, unassigned) [Example 144] | 1000 to 100000
36 | COCc1cc2c(Nc3cc([C@@H]4C[C@H](Oc5nncn5C(C)C)CO4)[nH]n3)nccn2n1 [Example 715] | ≤ 100
37 | COCc1cc2c(Nc3cc([C@H]4C[C@@H](Oc5nncn5C(C)C)CO4)[nH]n3)nccn2n1 [Example 671] | 100 to 250
38 | COCc1cc2c(Nc3cc([C@H]4C[C@@H](COc5nncn5C(C)(C)C)C4)[nH]n3)nccn2n1 [Example 636] | ≤ 100
39 | COCc1cc2c(Nc3cc([C@H]4C[C@@H](OC(=O)NC5(CF)CC5)CO4)[nH]n3)nccn2n1 [Example 680] | ≤ 100
40 | Cc1cc(CC(=O)Nc2cc(-c3csc4cncnc34)[nH]n2)on1 [Example 240] | 1000 to 100000
41 | CC(C)NC(=O)O[C@@H]1CC[C@H](c2cc(N)n[nH]2)C1 (single isomer, unassigned) [Example 417] | 1000 to 100000
42 | CC(C)n1cnnc1O[C@H]1CO[C@@H](c2cc(Nc3nccn4nccc34)n[nH]2)C1 [Example 784] | ≤ 100

The next lines start with the values.

Row | IC50 [nM] | Structure (SMILES)
43 | ≤ 100 | CC(C)NC(=O)O[C@H]1CC[C@@H](c2cc(Nc3nccn4nccc34)n[nH]2)C1 (single isomer, unassigned) [Example 139]
44 | ≤ 100 | CC(C)NC(=O)O[C@@H]1CC[C@H](c2cc(Nc3ccc4c(n3)C(C)(C)NC4=O)n[nH]2)C1 (single isomer, unassigned) [Example 527]
45 | 100 to 250 | COCc1cc(C(=O)Nc2cc([C@@H]3CC[C@H](Oc4cccnc4C(C)C)C3)[nH]n2)n(C)n1 (single isomer, unassigned) [Example 473]
46 | ≤ 100 | CC(C)NC(=O)O[C@H]1CC[C@@H](c2cc(Nc3ncnc4ncsc34)n[nH]2)C1 [Example 426]
47 | 1000 to 100000 | Cc1ncccc1OC[C@H]1C[C@H](c2cc(Nc3nccn4nccc34)n[nH]2)C1 [Example 514]
48 | 1000 to 100000 | Oc1ccc2ccnc(Nc3cc(C4CCCC4)[nH]n3)c2c1 [Example 813]
49 | 1000 to 100000 | CC(C)NC(=O)N[C@@H]1CC[C@H](c2cc(Nc3ncccn3)n[nH]2)C1 (single isomer, unassigned) [Example 123]
50 | ≤ 100 | CC(C)c1ccnnc1O[C@@H]1CC[C@H](c2cc(Nc3nccc4ncsc34)n[nH]2)C1 [Example 436]
51 | ≤ 100 | COCc1cc(C(=O)Nc2cc([C@@H]3CC[C@H](Oc4nnccc4C4CCC4)C3)[nH]n2)n(C)n1 (single isomer, unassigned) [Example 551]
52 | 250 to 1000 | COCc1nc2cc(Nc3cc([C@H]4CC[C@@H](OC(=O)NC(C)C)C4)[nH]n3)ncc2s1 (single isomer, unassigned) [Example 111]
53 | 1000 to 100000 | COCc1cc(C(=O)Nc2cc([C@@H]3CC[C@H](Oc4c(C)ccnc4C)C3)[nH]n2)n(C)n1 (single isomer, unassigned) [Example 478]
54 | ≤ 100 | CC1(NC(=O)O[C@H]2CO[C@@H](c3cc(Nc4ccc5c(n4)C(C)(C)NC5=O)n[nH]3)C2)CC1 [Example 723]
55 | 1000 to 100000 | COCc1cc(C(=O)Nc2cc([C@H]3CC[C@@H](Oc4cncnc4)C3)[nH]n2)n(C)n1 (single isomer, unassigned) [Example 387]
56 | ≤ 100 | COCc1cc(C(=O)Nc2cc([C@@H]3CC[C@H](Oc4nnccc4-c4ccccc4)C3)[nH]n2)n(C)n1 (single isomer, unassigned) [Example 475]
57 | 1000 to 100000 | COCc1cc(C(=O)Nc2cc([C@@H]3CC[C@H](Oc4ccc(C)nc4)C3)[nH]n2)n(C)n1 (single isomer, unassigned) [Example 396]
58 | ≤ 100 | CC1(C)NC(=O)c2ccc(Nc3cc([C@H]4CC[C@@H](Oc5cccnc5)C4)[nH]n3)cc21 (single isomer, unassigned) [Example 565]
59 | ≤ 100 | COCc1cc(C(=O)Nc2cc([C@@H]3CC[C@H](Oc4nccnc4C(C)C)C3)[nH]n2)n(C)n1 (single isomer, unassigned) [Example 531]
60 | 1000 to 100000 | COCc1cc(C(=O)Nc2cc([C@H]3CC[C@@H](Oc4c(C)ccnc4C)C3)[nH]n2)n(C)n1 (single isomer, unassigned) [Example 479]
61 | ≤ 100 | CC(C)NC(=O)O[C@H]1CC[C@@H](c2cc(Nc3nccn4nc(C(F)(F)F)cc34)n[nH]2)C1 (single isomer, unassigned) [Example 501]
62 | ≤ 100 | CC(=O)Nc1nc2ccnc(Nc3cc(C4CC[C@H](OC(=O)NC(C)C)C4)[nH]n3)c2s1 (single isomer, unassigned) [Example 424]
63 | 100 to 250 | Cc1cnn(-c2ccnc(Nc3cc([C@H]4CC[C@@H](OC(=O)NC(C)C)C4)[nH]n3)c2)c1 (single isomer, unassigned) [Example 402]
64 | ≤ 100 | COCc1cc(C(=O)Nc2cc([C@H]3CC[C@@H](Oc4cnccc4C4CC4)C3)[nH]n2)n(C)n1 (single isomer, unassigned) [Example 393]
65 | ≤ 100 | Cc1ncccc1O[C@H]1CC[C@@H](c2cc(Nc3nccn4nccc34)n[nH]2)C1 (single isomer, unassigned) [Example 485]
66 | ≤ 100 | COCc1nc2ccnc(Nc3cc([C@H]4CC[C@@H](OC(=O)NC(C)C)C4)[nH]n3)c2s1 (single isomer, unassigned) [Example 398]
